Results from BigSolDB 2.1.

OCC1(O)OC[C@@H](O)[C@H](O)[C@@H]1O (stereo not given in full)
solubility (mole fraction)
Conditions	283.15 K	288.15 K	293.15 K	298.15 K	303.15 K	308.15 K	313.15 K	318.15 K	323.15 K
in ethanol	0.00138	0.00168	0.00193	0.00219	0.00245	0.00288	0.00328	0.00395	0.00468
in isopropanol	0.00038	0.00041	0.0006	0.00088	0.00121	0.0015	0.00171	0.00211	0.00261
in methanol	0.00414	0.00553	0.00609	0.00758	0.00892	0.0101	0.0121	0.0155	0.0166
in n-propanol	0.00038	0.00043	0.00062	0.00088	0.00127	0.00164	0.002	0.00238	0.00272
in water	0.0976	0.106	0.116	0.124	0.135	0.146	0.155	0.166	0.175
